Key:
[1] = In vitro microsomal clearance, human; format: in vitro ADME
[2] = In vitro microsomal clearance, rat; format: in vitro ADME
[3] = In vitro microsomal clearance, dog; format: in vitro ADME; conditions: Dog (Beagle)
[4] = tested on: ICRAC current; assay: ICRAC assay: thapsigargin-induced calcium influx in Jurkat E6-1 cells (Fluo-4, FLIPR); format: cell-based; conditions: Homo sapiens, thapsigargin 5 μM, calcium add-back, inhibition of maximal fluorescence signal
Procedure: This ICRAC assay uses the SERCA inhibitor thapsigargin to produce calcium depletion and activate an ICRAC current. […] Changes in intracellular calcium levels are determined by the inclusion of the calcium sensitive fluorescent dye Fluo-4 and the use of the FLIPR detection system. Inhibitors of ICRAC would be expected to decrease the calcium influx upon calcium add-back, thus reducing fluorescent signal.
Jurkat E6-1 is an established immortalised T lymphocyte cell line previously shown to express a functional ICRAC current. Jurkat cells grow in suspension, are cultured in DMEM+10% FBS, maintained in T175 flasks at 37° C./5% CO2, and are subcultured twice a week with either 1:10-1:20 splits. 1 confluent T175 yields 100 ml of approximately 2×10^6 cells/ml.
Loading buffer contains; NaCl 145 mM, KCl 2.5 mM, HEPES 10 mM, Glucose 10 mM, MgCl2 1.2 mM, made up with water, then pH adjusted to 7.4 using NaOH 1 M. Finally Fluo-4AM & brilliant black are added to give a final assay concentration of 2 μM and 250 μM respectively. […]
The required seeding density for a 384 plate is 20,000 cells per well. […] Plates are then transferred to the FLIPR which initially measures baseline fluorescence, followed by any increase in fluorescence evoked by the online addition of a 6 mM (1.2 mM FAC) calcium solution. […]

Row | SMILES | CIint [1] [mL/min g liver] | CIint ([2]; Rat (CD)) [mL/min g liver] | CIint ([2]; Rat (Wistar Han)) [mL/min g liver] | CIint [3] [mL/min g liver] | IC50 [4] [µM]
1 | [2H]C([2H])(c1c(F)cccc1C(F)(F)F)n1cc(NC(=O)c2c(F)cccc2F)cn1 [Example 3, 2,6-Difluoro-N-(1-(2-fluoro-6-(trifluoromethyl)-d2-benzyl)-1H-pyrazol-4-yl)benzamide] | <0.5 | 0.95 | 1.16 | 0.80 | –
2 | O=C(Nc1cnn(Cc2c(F)cccc2C(F)(F)F)c1)c1c(F)cccc1F [Example 1, 2,6-Difluoro-N-(1-{[2-fluoro-6-(trifluoromethyl)phenyl]methyl}-1H-pyrazol-4-yl)benzamide] | 0.80 | 1.67 | 2.05 | 0.98 | 3.16

Reference: patent publication US9156791B2, “Pyrazole compounds acting against allergic, immune and inflammatory conditions” (Glaxo Group Limited, priority 2010, dated 2015)
